Holding throughout (test): NCI anticancer screen, dose series, 48 h
In experiment [1] the test system is OVCAR-5 ovarian.
Experiment [2] deals with EKVX NSCLC.
The subject of experiment [3] is SK-MEL-5 melanoma.
Experiment [4] has as its system TK-10 renal.
Experiment [5] deals with HOP-62 NSCLC.
The test system of experiment [6] is K-562 leukemia.
The subject of experiment [7] is A549 NSCLC.
In experiment [8] the test system is U251 CNS.
Experiment [9] has as its system NCI-H226 lung.
Experiment [10] has as its system DU-145 prostate.
In experiment [11] the test system is UACC-62 melanoma.
Experiment [12] deals with HCT-116 colon.
In experiment [13] the test system is COLO 205 colon.
The subject of experiment [14] is BT-549 breast.
The subject of experiment [15] is 786-0 renal.
Experiment [16] relates to IGROV1 ovarian.
The test system of experiment [17] is CAKI-1 renal.
The test system of experiment [18] is M14 melanoma.
The test system of experiment [19] is HOP-92 NSCLC.
Experiment [20] has as its system OVCAR-4 ovarian.

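Where inhibition never reached the appropriate level, the endpoint shown equals the highest concentration tested. Otherwise, values were interpolated linearly from a five-concentration, 48-hour dose response in 96-well plates. TGI: concentration producing complete growth inhibition.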 Where only a bound is given, the exact number is not on record here.

For the compound `C[N+](C)(C)CCOP(=O)([O-])OCCNC(=O)c1ccc2ccccc2c1`, the TGI in experiment [1], in experiment [2], in experiment [3], in [4], in [5] and in [6] was > 100 µM each time. Moreover, the TGI in [7], in [8], in experiment [9], in experiment [10], in experiment [11] and in experiment [12] was > 100 µM in each case. The TGI in experiment [13], in experiment [14], in [15], in experiment [16], in experiment [17] and in experiment [18] was > 100 µM in each case.
Take `CSc1ccc(/C=C2\N=C(c3ccccc3)N(/N=C3\C(=O)Nc4ccccc43)C2=O)cc1`: the TGI in [1], in experiment [2], in experiment [3], in experiment [4], in experiment [5] and in [6] was > 100 µM each time. Further, the TGI in [7], in [19], in experiment [8], in experiment [10], in experiment [11] and in experiment [12] was > 100 µM each time. For the same compound, the TGI in experiment [13], in [14], in experiment [15], in [20], in experiment [16] and in experiment [17] was > 100 µM each time. Further, the TGI in experiment [18] was > 100 µM.
For `C=C(CO)[C@H]1Oc2ccc(C(C)=O)cc2[C@@H]1O`, the TGI in experiment [1], in experiment [2], in [3], in [4], in experiment [5] and in [6] was > 100 µM throughout. Besides, the TGI in [7], in experiment [8], in [9], in [10], in experiment [11] and in [12] was > 100 µM each time. In addition, the TGI in [13], in experiment [14], in experiment [15], in experiment [20], in experiment [16] and in experiment [17] was > 100 µM throughout. In addition, the TGI in experiment [18] is > 100 µM.
On to `COC(=O)/C=C(\C)CC/C=C(\C)CCC(O)C(C)(C)O` (stereo unspecified), for which the TGI in experiment [1] is > 100 µM; in experiment [2], > 100 µM; in experiment [3] it was 33.4 µM; in experiment [4], > 100 µM; in [5] it was 78 µM; in experiment [6], 76.7 µM. Also, the TGI in experiment [7] is > 100 µM; in [19], > 100 µM; in [8], 79.3 µM; in [9], > 100 µM; in experiment [11], 77.9 µM; in [12], 44.9 µM. The TGI in experiment [13] was 38.3 µM; in experiment [14] it was 84 µM; in experiment [15] it was 42.5 µM; in experiment [20], > 100 µM; in [16] it was > 100 µM; in [17], 48.5 µM. In experiment [18], this compound gave a TGI of 81.3 µM.
In the case of `CC(=O)O[C@H]1C(=O)[C@@]2(C)C(C(OC(=O)c3ccccc3)[C@]3(O)CC(OC(=O)C(O)C(NC(=O)c4ccccc4)c4cccc(Cl)c4)C(C)=C1C3(C)C)[C@]1(OC(C)=O)CO[C@@H]1C[C@@H]2O` (stereo partly specified), the TGI in experiment [1], in experiment [2], in experiment [3], in experiment [4], in [5] and in [6] was > 10 µM throughout. Further, the TGI in [7] was > 10 µM; in experiment [8] it was > 10 µM; in experiment [9], > 10 µM; in experiment [10], 9.16 µM; in experiment [11], > 10 µM; in [12] it was > 10 µM. Moreover, the TGI in experiment [13], in experiment [14], in experiment [15], in experiment [20], in experiment [16] and in experiment [17] was > 10 µM throughout. Further, the TGI in [18] was > 10 µM.
Turning to `CC(=O)OCC1OC(Oc2cc(C)c(O)cc2C/C=C(\C)CC/C=C(\C)C[C@@H](C=C(C)C)OC(C)=O)C(O)C(OC(C)=O)C1OC(C)=O` (stereo partly specified), the TGI in experiment [1] was > 50 µM; in experiment [2], > 50 µM; in experiment [3], 18.7 µM; in [4], > 50 µM; in experiment [5] it was > 50 µM; in [6], 35.4 µM. The TGI in experiment [7], in experiment [19], in experiment [8], in [10], in experiment [11] and in experiment [12] was > 50 µM throughout. In addition, the TGI was 16.8 µM in experiment [13]; > 50 µM in experiment [14]; > 50 µM in experiment [15]; > 50 µM in experiment [20]; > 50 µM in [16]; > 50 µM in experiment [17]. For the same compound, in experiment [18], the TGI is > 50 µM.
As to `CCCCCCC1CC(=O)C1(Cl)Cl` (stereo unspecified), the TGI in [1] is > 100 µM; in experiment [2], > 100 µM; in experiment [3], 31.2 µM; in [4] it was > 100 µM; in [5], > 100 µM; in experiment [6], > 100 µM. For the same compound, the TGI is > 100 µM in [7]; > 100 µM in experiment [8]; > 100 µM in experiment [9]; 92.8 µM in [10]; 47.8 µM in experiment [11]; 30.4 µM in [12]. The TGI in experiment [14] was 48.6 µM; in experiment [15], 32.2 µM; in [20], > 100 µM; in [16], 61.8 µM; in experiment [17], 33.3 µM; in experiment [18] it was 62.6 µM.
